Reference: patent US20180092908A1, “SMALL MOLECULE OXIDIZERS OF PDI AND THEIR USE” (THE TRUSTEES OF COLUMBIA UNIVERSITY IN THE CITY OF NEW YORK, priority 2015, published 2018)
In brackets after ≈: the same amount, converted by molar mass. Read-outs that look alike come from different tables or passages of the source.

How the values were obtained:
[1] = test system: PC12 mHTT^Q103 cells; assay: Rescue of PC12 cells from mHTT^Q103 induced cell death (Alamar blue viability); format: cell-based; settings: Rattus norvegicus, PC-12; Table 5; read-out: Cell Viability Assay EC50
Text: PC12 mHTT^Q103 cells were a gift from Erik S. Schweitzer (UCLA School of Medicine, Los Angeles, Calif.). These cells are stably transfected with the first exon of human HTT gene containing the pathogenic 103 CAG/CAA repeat expansion, under the control of the ecdysteroid promoter (Aiken et al., 2004). The plasmid also contains a Bombyx mori ecdysone receptor gene fused at N-terminal with VP16 transactivation domain (Suhr et al., 1998; Vilaboa et al., 2011). Addition of the ecdysone analog, tebufenozide, to the cell culture medium is used to initiate the transcription of mutant HTT (Aiken et al., 2004).
PC12 mHTT^Q103 cells were cultured in DMEM containing 4.5 g/I glucose, 25 mM HEPES, sodium pyruvate, and no L-glutamine (Mediatech, cat. no. 15-018-CV), supplemented with 10% (v/v) Cosmic Calf serum, 2 mM L-glutamine, 100 units/mL of penicillin-streptomycin, and 0.5 mg/ml active geneticin. Cells were grown at 37° C., 9.5% CO2, and the medium was replaced with fresh medium every 2-3 days. To induce mHTT^Q103 expression for experiments, tebufenozide, a gift from Lynne Moore and Fred H. Gage (The Salk Institute for Biological Studies, La Jolla, Calif.), was added to the medium at 200 nM final concentration from 1 mM stock in 85% ethanol.
LOC mother plates with compounds at 4 mg/ml were thawed and spun down (1000 rpm, 20° C., 1 min) prior to use. Biomek FX (Beckman Coulter) robotic liquid dispenser was used to handle all liquid transferring and mixing. […] Two fold serial dilution was performed across five daughter plates by transferring 50 μl of compounds (at […]) from the D1 plate into 50 μl of PC12 medium in daughter plate D2, mixing, and then repeating the process for the remaining three plates. Daughter plate D1 with compounds at […], daughter plate D3 with compounds at 20 μl/ml and daughter plate D5 with compounds at 5 μl/ml were then used for the screen. Assay plates were set up by seeding tebufenozide-induced PC12 mHTT^Q103 cells into 384-well black, clear-bottom plates (Corning Inc. cat. no. 3712) at a density of 7,500 cells per well in 57 μl PC12 medium without geneticin. Three microliters of compound from the daughter plates (D1, D3, and D5) were added to the assay plates for a final compound concentration of 4 μl/ml, 1 μl/ml, and 0.25 μl/ml. Four wells containing uninduced PC12 mHTT^Q103 cells and four wells containing medium only, were also included on each plate as controls. The assay plates were incubated at 37° C., 9.5% CO2 for 48 hours. Twenty microliters of 40% Alamar blue (Life Technologies cat. no. DAL1100) solution in PC12 medium was added to each well (1:10 final dilution) and the plates were incubated for an additional 12-24 hours at 37° C., 9.5% CO2. Alamar blue fluorescence was read on a fluorescence plate reader (PerkinElmer Victor3) with 530 nm excitation filter and 590 nm emission filter. Each compound concentration was tested in triplicate.
The follow-up testing of primary screen hits was performed in a similar way. Fresh powder stocks of primary hits were re-ordered from vendors, dissolved in DMSO and tested in a two-fold serial dilution across 10 wells in both tebufenozide-induced and uninduced PC12 mHTT^Q103 cells. Dose-response curves were plotted as mean±SD and fit to either four-parameter sigmoidal (for uninduced cells) or bell-shaped (induced) function using Prism (GraphPad Software).
A cascade of two assays was used, involving both a phenotypic high-throughput screening (HTS) assay and an in vitro PDI reductase assay, to identify neuroprotective PDI-inhibiting compounds. […] Alamar blue was used as a fluorescent readout for viability after 48 hours of compound treatment and mHTT^Q103 induction. […] All the candidate hit compounds were re-tested in a two-fold dilution series.

[2] = target: T1, recombinant catalytic a domain of human PDI A1 (PDIa) (Homo sapiens, UniProt P07237); assay: Insulin aggregation assay (PDIa reductase activity); format: biochemical; settings: Table 5
T1 construct: made in house; host or cells: Escherichia coli BL21-Gold (DE3)
Text: In this insulin aggregation assay (Xu et al., 2012; Jasuja et al., 2012; Khan et al., 2011; Smith et al., 2004), PDIa reduced the two disulfide bonds between the α- and β-chains of insulin, causing the β-chain to aggregate and precipitate, resulting in an increase in absorbance at 650 nm.
To investigate the mode of binding further and to determine whether the binding was reversible or irreversible, the recovery of enzymatic activity of PDIa after dilution of pre-formed concentrated PDIa-LOC14 complexes was analyzed. LOC14 (750 μM) was incubated with a concentrated solution of PDIa (500 μM). The mixture was then diluted 100-fold and PDI's enzymatic activity was measured in the insulin reduction assay. As a control, the same procedure was also performed on the sample containing an irreversible inhibitor, 16F16 (16F16 at 750 μM and PDIa at 500 μM). […] This illustrated that unlike 16F16, LOC14 binding to PDIa is reversible.

[3] = Solubility; settings: DMSO, Table 5
[4] = physchem; settings: organic solvent or mixture
[5] = target: T2, human catalytic PDI A1 a domain (PDIa) (Homo sapiens, UniProt P07237); assay: Isothermal titration calorimetry (ITC) binding to PDIa; settings: PDIa
T2 construct: made in house; host or cells: Escherichia coli BL21-Gold (DE3)
Method: All ITC experiments were carried out at 25° C. on MicoCal Auto-ITC200 system (GE Healthcare). Reduced PDIa was dialyzed into ITC buffer (20 mM sodium phosphate buffer pH 7.8) and loaded into a sample cell at 40 μM concentration. The compound solution was loaded into a syringe at 400 μM in the same ITC buffer with a final DMSO concentration at 0.4% (v/v). ITC titration experiments were carried out at 25° C. with 19 injections, 2 μl per injection, and 180 seconds between each injection. The reference cell power was set to 5 μcal/sec. A control experiment was performed for each compound, where each compound was titrated into buffer to account for heat released due to dilution. This background was subtracted from test data before a final dissociation constant was obtained. Data were analyzed using a one-site binding model in Origin 7.1 software. […] Gibbs free energy, ΔG, was calculated from equation ΔG=ΔH−TΔS. All other parameters, Ka, n, ΔH, ΔS, were determined directly from the titration data.
For ITC experiments with 16F16 pre-treatment, 40 μM PDIa (after dialysis into ITC buffer) was treated with 200 μM 16F16 for 12-15 hours at 4° C. Next day the whole solution was loaded into the sample cell. LOC14 at 400 μM in ITC buffer was loaded into syringe and titrated into PDIa+16F16 loaded cell. For control experiments, ITC buffer with 200 μM 16F16 was used in the cell, while 400 μM LOC14 in ITC buffer was used in the syringe.
The binding mode of LOC14 to PDIa was next investigated using isothermal titration calorimetry (ITC). ITC measures the heat released or absorbed during a biomolecular interaction. It is a direct analytical method for determining the binding and thermodynamic parameters, such as reaction stoichiometry (n), binding constants (Ka and Kd), enthalpy (ΔH), entropy (ΔS), and free energy (ΔG) of an interaction.

[6] = Table 5, read-out: ITC Assay KD

T1 sequence (P07237 with tags, fused parts or gaps): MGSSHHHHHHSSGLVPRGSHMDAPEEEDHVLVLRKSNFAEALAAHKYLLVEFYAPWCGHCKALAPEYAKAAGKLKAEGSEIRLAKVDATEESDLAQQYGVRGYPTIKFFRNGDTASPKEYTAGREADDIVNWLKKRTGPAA
T2 sequence (P07237 with tags, fused parts or gaps): as above

Insulin Assay (either active or inactive) [2] | Solubility in DMSO [3] | solubility ([4]; DMSO) | Kd ([5]; Table 4, read-out: ITC KD) | Kd [5, 6] | ITC Assay KD ([5]; Table 5) | ITC KD ([5]; Table 4) | Compound | EC50 [1] | solubility [4]
Active | 100 mM in DMSO | – | – | – | – | – | Cc1nnc2sn(C(C)N3CCC(C(=O)C4CC4)CC3)c(=O)c2c1C (stereo not shown) [LC-59] | 10600 nM | –
Active | – | 10 mM (≈ 1940 µg/mL) | – | – | – | – | Cc1nc2s[nH]c(=O)c2c(C)c1C [LC-51] | 2200 nM | –
Active | 100 mM in DMSO | – | 265 nM | 265 nM | – | – | O=c1c2ccccc2sn1CN1CCC(CO)CC1 [LC-4] | 343 nM | –
not active | – | 30 mM (≈ 9940 µg/mL) | – | – | KD = N/A irreversible or not active | – | O=C(C1CC1)N1CCN(C(=O)n2sc3ccccc3c2=O)CC1 [LC-14] | > 50000 nM | –
not active | – | 50 mM (≈ 13500 µg/mL) | – | – | KD = N/A irreversible or not active | KD = not active | O=C(Nc1ccccc1)n1sc2ccccc2c1=O [LC-6, 3-oxo-N-phenylbenzo[d]isothiazole-2(3H)-carboxamide] | 476 nM | –
Active | 100 mM in DMSO | – | 91.7 nM | 91.7 nM | – | – | O=c1c2ccccc2sn1CN1CCSCC1 [LC-3] | 463 nM | –
Active | – | 10 mM (≈ 3600 µg/mL) | – | – | – | – | Cc1nc2sn(CN3CCN(C(=O)C4CC4)CC3)c(=O)c2c(C)c1C [LC-52] | 3570 nM | –
not active | – | 50 mM (≈ 7610 µg/mL) | – | – | KD = N/A irreversible or not active | – | O=c1[nH]sc2ncccc12 [LC-47] | > 50000 nM | –
not active | – | 30 mM (≈ 9370 µg/mL) | – | – | KD = N/A irreversible or not active | – | O=c1c2ccccc2sn1-c1ccc(N2CCOCC2)cc1 [LC-27] | 1830 nM | –
Active | 100 mM in DMSO | – | 190 nM | 190 nM | – | – | CC(=O)c1ccc(N2CCN(Cn3sc4ccccc4c3=O)CC2)cc1 [LC-13] | 514 nM | –
Active | 100 mM in DMSO | – | 140 nM | 140 nM | – | – | O=c1c2ccccc2sn1CN1CCN(c2ncccn2)CC1 [LC-12] | 416 nM | –
not active | – | 50 mM (≈ 17400 µg/mL) | – | – | KD = N/A irreversible or not active | – | CC(C)(C)OC(=O)N1CCC(COc2nsc3ccccc23)CC1 [LC-16] | > 50000 nM | –
Active | – | 20 mM (≈ 7040 µg/mL) | 114 nM | 114 nM | – | – | O=C(C1CC1)N1CCN(Cn2sc3ccc(Cl)cc3c2=O)CC1 [LC-15, 5-chloro-2-((4-(cyclopropanecarbonyl)piperazin-1-yl)methyl)benzo[d]isothiazol-3(2H)-one] | 467 nM | –
Active | 100 mM in DMSO | – | 107 nM | 107 nM | – | – | O=c1c2ccccc2sn1CN1CCCCC1 [LC-1] | 459 nM | –
Active | – | 25 mM (≈ 8660 µg/mL) | – | – | – | – | Cc1cc(C)c2c(=O)n(CN3CCN(C(=O)C4CC4)CC3)sc2n1 [LC-53] | 4200 nM | –
Active | 100 mM in DMSO | – | – | 160 nM | – | – | O=c1c2ccccc2sn1Cn1sc2ccccc2c1=O [LC-17, 2,2′-methylenebis(benzo[d]isothiazol-3(2H)-one)] | 229 nM | –
not active | – | – | – | – | KD = N/A irreversible or not active | – | O=C(Nc1ccc(Cc2ccccc2)cc1)c1ccccc1S [LC-23] | 3880 nM | –
not active | – | – | – | – | KD = N/A irreversible or not | – | O=c1c2ccccc2sn1-c1cccc(F)c1 [LC-31] | 1760 nM | –

Compound | Insulin Assay (either active or inactive) [2] | Solubility in DMSO [3] | solubility ([4]; DMSO) | Kd ([5]; Table 4, read-out: ITC KD) | Kd [5, 6] | ITC Assay KD ([5]; Table 5) | ITC KD ([5]; Table 4) | EC50 [1] | solubility [4]
Cc1cc(C)c2c(=O)ssc2n1 [LC-50] | Active | 100 mM in DMSO | – | – | – | – | – | 5180 nM | –
O=C(Nc1ccccc1)c1ccccc1S [LC-19] | not active | – | – | – | – | KD = N/A irreversible or not active | – | – | 50 mM (≈ 11500 µg/mL)
CN1CCN(Cn2sc3ccccc3c2=O)CC1 [LC-2] | Active | 100 mM in DMSO | – | 134 nM | 91.7 nM | – | – | 415 nM | –
O=c1c2ccccc2sn1CN1CCC(O)CC1 [LC-7] | Active | 100 mM in DMSO | – | 216 nM | 216 nM | – | – | 441 nM | –
CC(C)(C)OC(=O)N1CCN(Cn2sc3ccccc3c2=O)CC1 [LC-10] | Active | 100 mM in DMSO | – | 123 nM | 123 nM | – | – | 581 nM | –
